Several values for one entry are separate records, joined by “and”; a condition that tells them apart may be missing. Equal values may be shown once. Toxic doses and inconclusive results are not listed. Rule as the data show it: active = T/C of 150% or more; inactive = T/C below 125%.
Test system: L1210 leukemia ip in BDF1 mice, survival T/C
Assay: NCI In Vivo Anticancer Drug Screen. Data for tumor model L1210 Leukemia (intraperitoneal) in B6D2F1 (BDF1) mice
Details: endpoint: mean survival time, higher = longer survival
Procedure, shortened: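 Tumor was transplanted into mice, which were then dosed with test compound or vehicle alone. Survival was recorded for each group, and the treated figure was expressed relative to the control figure.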

[1] = dose: 400.0 mg/kg/injection, schedule: Q01DX009 (ip), vehicle: saline with Tween-80
[2] = dose: 100.0 mg/kg/injection, schedule: Q01DX001 (ip), vehicle: carboxymethylcellulose (CMC)
[3] = dose: 200.0 mg/kg/injection, schedule: Q01DX001 (ip), vehicle: carboxymethylcellulose (CMC)
[4] = dose: 400.0 mg/kg/injection, schedule: Q01DX001 (ip), vehicle: carboxymethylcellulose (CMC)
[5] = dose: 100.0 mg/kg/injection, schedule: Q01DX001 (ip), vehicle: saline
[6] = dose: 200.0 mg/kg/injection, schedule: Q01DX001 (ip), vehicle: saline
[7] = dose: 25.0 mg/kg/injection, schedule: Q04DX003 (ip), vehicle: saline
[8] = dose: 50.0 mg/kg/injection, schedule: Q04DX003 (ip), vehicle: saline
[9] = dose: 100.0 mg/kg/injection, schedule: Q04DX003 (ip), vehicle: Klucel (hydroxypropylcellulose) (HPC)
[10] = dose: 200.0 mg/kg/injection, schedule: Q04DX003 (ip), vehicle: Klucel (hydroxypropylcellulose) (HPC)
[11] = dose: 400.0 mg/kg/injection, schedule: Q04DX003 (ip), vehicle: Klucel (hydroxypropylcellulose) (HPC)
[12] = dose: 100.0 mg/kg/injection, schedule: Q04DX002 (ip), vehicle: saline with Tween-80
[13] = dose: 200.0 mg/kg/injection, schedule: Q04DX002 (ip), vehicle: saline with Tween-80
[14] = dose: 400.0 mg/kg/injection, schedule: Q04DX002 (ip), vehicle: saline with Tween-80

Measured: T/C

CO/C=C1\Cc2cc(OC)c(OC)cc2C1=O
inactive: dose: 100.0 mg/kg/injection, schedule: Q01DX009 (ip), vehicle: saline with Tween-80 102 % of control | dose: 200.0 mg/kg/injection, schedule: Q01DX009 (ip), vehicle: saline with Tween-80 104 % of control | [1] 94 % of control

CC1=CC(=O)C=CC1=O
inactive: dose: 5.0 mg/kg/injection, schedule: Q01DX001 (ip), vehicle: saline 107 % of control

CS(=O)(=O)OCC#CCOS(C)(=O)=O
inactive: dose: 8.0 mg/kg/injection, schedule: Q01DX Z (ip), vehicle: saline 100 % of control | dose: 16.0 mg/kg/injection, schedule: Q01DX Z (ip), vehicle: saline 109 % of control | dose: 32.0 mg/kg/injection, schedule: Q01DX Z (ip), vehicle: saline 105 % of control | dose: 64.0 mg/kg/injection, schedule: Q01DX Z (ip), vehicle: saline 117 % of control

CN(C)N=Nc1ccc(CCCC(=O)NN)cc1
inactive: dose: 18.0 mg/kg/injection, schedule: Q01DX009 (ip), vehicle: other 103 % of control | dose: 22.0 mg/kg/injection, schedule: Q01DX Z (ip), vehicle: carboxymethylcellulose (CMC) 114 % of control | dose: 28.0 mg/kg/injection, schedule: Q01DX009 (ip), vehicle: other 111 % of control | [2] 111 % of control | [3] 113 % of control

N#CCC1CC=CCC1 (stereo unspecified)
inactive: [2] 98 % of control | [3] 98 % of control | [4] 104 % of control

CCC(C)(CCC(C)C)c1ccncc1 (stereo unspecified)
inactive: [5] 106 % of control | [6] 98 % of control

CCC(C)C(C(=O)OC1CCN(C)CC1)c1ccccc1 (stereo unspecified)
inactive: [7] 102 % of control | dose: 50.0 mg/kg/injection, schedule: Q01DX009 (ip), vehicle: saline 105 % of control | [8] 96 % of control | dose: 100.0 mg/kg/injection, schedule: Q01DX009 (ip), vehicle: saline 98 % of control | dose: 100.0 mg/kg/injection, schedule: Q04DX003 (ip), vehicle: saline 97 % of control and 108 % of control

COC(=S)Nc1cccc(OC(=O)NC(C)C)c1
inactive: dose: 100.0 mg/kg/injection, schedule: Q01DX001 (ip), vehicle: saline with Tween-80 97 % of control | dose: 200.0 mg/kg/injection, schedule: Q01DX001 (ip), vehicle: saline with Tween-80 95 % of control | dose: 400.0 mg/kg/injection, schedule: Q01DX001 (ip), vehicle: saline with Tween-80 100 % of control

CN(C)C(C(N)=O)C(=O)c1ccccc1 (stereo unspecified)
inactive: [5] 102 % of control | [6] 104 % of control | dose: 400.0 mg/kg/injection, schedule: Q01DX001 (ip), vehicle: saline 88 % of control

C=CC[P+](Cc1cccc(OC)c1)(c1ccccc1)c1ccccc1
inactive: dose: 6.25 mg/kg/injection, schedule: Q04DX003 (ip), vehicle: saline 98 % of control | dose: 12.5 mg/kg/injection, schedule: Q04DX003 (ip), vehicle: saline 98 % of control | [7] 98 % of control | [8] 93 % of control

CC(C)(C)c1cc(C[P+](c2ccc(Cl)cc2)(c2ccc(Cl)cc2)c2ccc(Cl)cc2)cc(C(C)(C)C)c1O
inactive: dose: 12.5 mg/kg/injection, schedule: Q01DX009 (ip), vehicle: Klucel (hydroxypropylcellulose) (HPC) 97 % of control | dose: 25.0 mg/kg/injection, schedule: Q01DX009 (ip), vehicle: Klucel (hydroxypropylcellulose) (HPC) 88 % of control | [9] 98 % of control | [10] 100 % of control

COc1ccc(/C(C#N)=C/c2ccncc2)cc1OC
inactive: dose: 100.0 mg/kg/injection, schedule: Q01DX001 (ip), vehicle: other 105 % of control | dose: 200.0 mg/kg/injection, schedule: Q01DX001 (ip), vehicle: other 94 % of control | dose: 400.0 mg/kg/injection, schedule: Q01DX001 (ip), vehicle: other 97 % of control

Nc1cncnc1N
inactive: dose: 30.0 mg/kg/injection, schedule: Q01DX Z (ip), vehicle: saline 101 % of control | dose: 60.0 mg/kg/injection, schedule: Q01DX Z (ip), vehicle: saline 103 % of control | dose: 120.0 mg/kg/injection, schedule: Q01DX Z (ip), vehicle: saline 100 % of control | dose: 240.0 mg/kg/injection, schedule: Q01DX Z (ip), vehicle: saline 97 % of control

N#CCCc1ccc(O)cc1
inactive: dose: 50.0 mg/kg/injection, schedule: Q01DX009 (ip), vehicle: gum acacia 100 % of control | dose: 100.0 mg/kg/injection, schedule: Q01DX009 (ip), vehicle: gum acacia 107 % of control | dose: 100.0 mg/kg/injection, schedule: Q04DX003 (ip), vehicle: gum acacia 97 % of control | dose: 200.0 mg/kg/injection, schedule: Q01DX009 (ip), vehicle: gum acacia 93 % of control | dose: 200.0 mg/kg/injection, schedule: Q04DX003 (ip), vehicle: gum acacia 97 % of control

O=C(Nc1ccc(Cl)cc1)Nc1cccc2ccccc12
inactive: dose: 100.0 mg/kg/injection, schedule: Q01DX009 (ip), vehicle: Klucel (hydroxypropylcellulose) (HPC) 91 % of control | [9] 94 % of control | dose: 200.0 mg/kg/injection, schedule: Q01DX009 (ip), vehicle: Klucel (hydroxypropylcellulose) (HPC) 89 % of control | [10] 94 % of control | dose: 400.0 mg/kg/injection, schedule: Q01DX009 (ip), vehicle: Klucel (hydroxypropylcellulose) (HPC) 97 % of control | [11] 93 % of control

CN1CCC(OC(=O)C(C)(O)C#Cc2ccccc2)CC1 (stereo unspecified)
inactive: dose: 50.0 mg/kg/injection, schedule: Q01DX001 (ip), vehicle: Klucel (hydroxypropylcellulose) (HPC) 102 % of control | dose: 100.0 mg/kg/injection, schedule: Q01DX001 (ip), vehicle: Klucel (hydroxypropylcellulose) (HPC) 97 % of control | dose: 200.0 mg/kg/injection, schedule: Q01DX001 (ip), vehicle: Klucel (hydroxypropylcellulose) (HPC) 100 % of control

CC(C)(C)c1ccc(-c2nnc(-c3ccc(-c4ccccc4)cc3)o2)cc1
inactive: [9] 95 % of control | [10] 92 % of control | [11] 90 % of control

O=[N+]([O-])NC(=NCCNc1ccccc1)Nc1ccccc1
inactive: dose: 100.0 mg/kg/injection, schedule: Q04DX002 (ip), vehicle: gum acacia 98 % of control | dose: 200.0 mg/kg/injection, schedule: Q04DX002 (ip), vehicle: gum acacia 98 % of control | dose: 400.0 mg/kg/injection, schedule: Q04DX002 (ip), vehicle: gum acacia 88 % of control

CCCCN(C)/N=N/c1nc[nH]c1C(=O)OCC
inactive: [2] 96 % of control | [3] 109 % of control | [4] 124 % of control

COc1ccc(C)cc1NC(=S)NC(=O)c1ccc(Cl)cc1Cl
inactive: dose: 25.0 mg/kg/injection, schedule: Q01DX009 (ip), vehicle: saline with Tween-80 93 % of control and 105 % of control | dose: 50.0 mg/kg/injection, schedule: Q01DX009 (ip), vehicle: saline with Tween-80 93 % of control and 94 % of control | [12] 96 % of control | dose: 100.0 mg/kg/injection, schedule: Q04DX003 (ip), vehicle: saline with Tween-80 98 % of control | [13] 93 % of control and 107 % of control | dose: 200.0 mg/kg/injection, schedule: Q04DX003 (ip), vehicle: saline with Tween-80 95 % of control | [1] 96 % of control | [14] 93 % of control and 98 % of control

NC(=O)c1c(/N=C/c2cc(Cl)cc(Cl)c2O)sc2c1CCCC2
inactive: [12] 96 % of control | [13] 93 % of control | [14] 96 % of control

CCCCCCCC[As](=O)(O)O
inactive: dose: 1.5 mg/kg/injection, schedule: Q01DX001 (ip), vehicle: carboxymethylcellulose (CMC) 104 % of control | dose: 3.0 mg/kg/injection, schedule: Q01DX001 (ip), vehicle: carboxymethylcellulose (CMC) 98 % of control | dose: 6.0 mg/kg/injection, schedule: Q01DX001 (ip), vehicle: carboxymethylcellulose (CMC) 102 % of control

Reference: PubChem BioAssay AID248 (DTP/NCI, 2004)
